Laboratory results taken from BindingDB's records for doi:10.1021/jm300844m (The University of Newcastle, 2013).
pIC50: −log10 of the molar value.

Assay: Inhibition of dyn2 in human U2OS cells assessed as clathrin-mediated endocytosis of Tfn after 30 mins

A pIC50 of 5.46 was found for CCCCCCCCNCc1cn(CCCN(C)C)c2ccccc12 in this work.
A pIC50 of 5.30 was found for CCCCCCCCNC(=O)/C(C#N)=C/c1cn(CCCN(C)C)c2ccccc12 [2-Cyano-N-octyl-3-(1-(3-dimethylaminopropyl)-1H-indol-3-yl)-acrylamide] in this work.
